Results taken from the supplement of paper PMC10307832.

Tests used:
Test in all cases: relative viability (nuclei count vs DMSO), 5 days (fraction); higher = more cells survive
XMD13-2 + Navitoclax = compound: C1CC1C(=O)NC2=NNC3=C2C=CC(=C3)C4=CC(=CC=C4)C(=O)NC5CC5 [XMD13-2] + CC1(C)CCC(c2ccc(Cl)cc2)=C(CN2CCN(c3ccc(C(=O)NS(=O)(=O)c4ccc(N[C@H](CCN5CCOCC5)CSc5ccccc5)c(S(=O)(=O)C(F)(F)F)c4)cc3)CC2)C1 [Navitoclax] (partner 0.5 µM)
In short: (§1)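 Lung cancer cell lines, seeded in 1536-well plates, were treated the following day by pin tool with a single drug or with five library-drug doses (not always all listed) in √10 steps on top of a fixed anchor-drug dose. Cells were fixed and nuclei stained in one step after 5 days, and nuclei were counted. Relative viability is the nuclei count for treated wells divided by that for vehicle wells, reported as medians of duplicate plates.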

ALW-II-49-7 + Alpelisib = compound: Cc1ccc(C(=O)Nc2cccc(C(F)(F)F)c2)cc1Nc1cncc(C(N)=O)c1 [ALW-II-49-7] + Cc1nc(NC(=O)N2CCC[C@H]2C(N)=O)sc1-c1ccnc(C(C)(C)C(F)(F)F)c1 [Alpelisib] (partner 2 µM)
In short: as §1

ALW-II-49-7 + Pemetrexed = compound: Cc1ccc(C(=O)Nc2cccc(C(F)(F)F)c2)cc1Nc1cncc(C(N)=O)c1 [ALW-II-49-7] + Nc1nc2[nH]cc(CCc3ccc(C(=O)N[C@@H](CCC(=O)O)C(=O)O)cc3)c2c(=O)[nH]1 [Pemetrexed] (partner 0.2 µM)
In short: as §1

XMD13-2 + OSI-027 = compound: C1CC1C(=O)NC2=NNC3=C2C=CC(=C3)C4=CC(=CC=C4)C(=O)NC5CC5 [XMD13-2] + COc1cccc2cc(-c3nc([C@H]4CC[C@H](C(=O)O)CC4)n4ncnc(N)c34)[nH]c12 [OSI-027] (partner 0.5 µM)
In short: as §1

Cell Line	relative viability (XMD13-2 + Navitoclax; first compound 0.05 µM)	relative viability (XMD13-2 + Navitoclax; first compound 0.1581 µM)	relative viability (XMD13-2 + Navitoclax; first compound 0.5 µM)	relative viability (XMD13-2 + Navitoclax; first compound 1.581 µM)	relative viability (XMD13-2 + Navitoclax; first compound 5 µM)	relative viability (ALW-II-49-7 + Alpelisib; first compound 0.08 µM)	relative viability (ALW-II-49-7 + Alpelisib; first compound 0.253 µM)	relative viability (ALW-II-49-7 + Alpelisib; first compound 0.8 µM)	relative viability (ALW-II-49-7 + Alpelisib; first compound 2.53 µM)	relative viability (ALW-II-49-7 + Alpelisib; first compound 8 µM)	relative viability (ALW-II-49-7 + Pemetrexed; first compound 0.08 µM)	relative viability (ALW-II-49-7 + Pemetrexed; first compound 0.253 µM)	relative viability (ALW-II-49-7 + Pemetrexed; first compound 0.8 µM)	relative viability (ALW-II-49-7 + Pemetrexed; first compound 2.53 µM)	relative viability (ALW-II-49-7 + Pemetrexed; first compound 8 µM)	relative viability (XMD13-2 + OSI-027; first compound 0.05 µM)	relative viability (XMD13-2 + OSI-027; first compound 0.1581 µM)	relative viability (XMD13-2 + OSI-027; first compound 0.5 µM)	relative viability (XMD13-2 + OSI-027; first compound 1.581 µM)	relative viability (XMD13-2 + OSI-027; first compound 5 µM)
NCI-H2085	1.25	1.14	1.16	1.18	1.1	1.03	0.903	0.971	0.895	1.01	0.867	1.01	0.913	1.01	0.854	0.74	0.749	0.757	0.654	0.916
NCI-H2087	1.01	1.13	1.02	0.968	0.959	1.26	1.1	1.09	0.973	0.996	0.637	0.679	0.673	0.606	0.621	0.716	0.69	0.482	0.565	0.489
NCI-H2126	0.909	0.867	0.831	0.813	0.845	0.713	0.723	0.726	0.763	0.738	0.733	0.708	0.654	0.661	0.755	0.8	0.665	0.666	0.702	0.837
NCI-H2170	0.761	0.577	0.577	0.569	0.475	0.723	0.762	0.751	0.867	0.793	0.283	0.275	0.244	0.302	0.285	0.748	0.703	0.744	0.559	0.704
NCI-H2228	1.15	0.949	0.643	0.668	0.841	0.647	0.649	0.866	0.75	0.769	0.323	0.356	0.356	0.289	0.134	0.824	0.605	0.597	0.518	0.546
NCI-H2347	0.726	0.827	0.919	0.786	0.981	1.08	0.98	0.986	0.869	0.873	0.438	0.441	0.417	0.509	0.377	0.394	0.455	0.426	0.444	0.413
NCI-H2405	0.871	0.727	0.9	0.767	0.916	0.741	0.829	0.743	0.248	0.753	1.14	1.12	0.898	1.06	0.791	0.632	0.543	0.587	0.676	0.598
NCI-H3122	0.996	1.02	1.02	1.01	1.01	0.824	0.651	0.865	0.873	0.981	0.201	0.174	0.207	0.216	0.186	1.02	0.924	1.02	0.917	0.7
PC-3 [JPC-3]	0.819	0.843	0.827	0.781	0.693	1.02	0.989	0.987	1.09	1.02	0.976	0.909	0.843	1.27	0.947	0.831	0.663	0.746	0.707	0.754
PC-14	0.972	1.1	0.999	0.973	1	0.833	0.541	0.838	0.911	0.828	0.15	0.165	0.13	0.138	0.113	1.04	0.832	0.98	0.842	0.971
RERF-LC-KJ	1.14	1.03	0.674	1	0.733	0.785	0.567	0.754	0.745	0.882	0.475	0.518	0.472	0.439	0.478	0.655	0.662	0.624	0.564	0.452
SK-LU-1	0.915	0.832	0.664	0.803	0.82	0.966	1.01	1.11	0.674	0.558	0.992	1.08	1.04	0.834	0.569	0.382	0.375	0.426	0.311	0.389
SK-MES-1	1.26	1.32	1.21	1.24	1.2	0.852	0.802	0.891	0.779	0.753	0.888	0.964	0.916	0.867	0.686	0.597	0.571	0.618	0.564	0.673
SW 1573	1.54	1.27	0.94	0.876	0.88	0.911	0.684	0.914	0.947	0.665	0.608	0.847	0.77	0.667	0.827	0.691	0.581	0.647	0.497	0.36
